# Entries after “also recorded” stand apart in the source; their conditions may differ. Where two headings read alike, the source gives them in different places. Marks after values point to notes of the source that are not given here.
# How the values were obtained:
# [1] = system: canine model of septic shock (Pseudomonas aeruginosa); settings: for Arterial pH / LD (lactate dehydrogenase) / Oxygen delivery: mean ± SD
# Procedure: We used a bacteremic model of Pseudomonas aeruginosa in this study as previously described (20). We used this particular model, since we wanted to measure mitochondrial function and LA under conditions of an acute and intensive inflammatory response analogous to that which would occur in a severe bout of SS in the clinical condition. […] Over the course of the experiment, we studied the animals (18 to 26 kg) while anesthetized with sufentanil citrate (0.05-0.3 ug/kg/min) and midazolam (5 ug/kg/min), and while being ventilated receiving 100% oxygen to maintain arterial around PO2 ˜400 mmHg. We adjusted the ventilator rate over the course of the study to attenuate the development of the metabolic acidosis that is usually observed (20).
# To assess hemodynamics in this model, we inserted vascular catheters under sterile conditions as previously described (20), after which we connected the catheters to pressure transducers (Cobe, Argon) that were referenced relative to the left atrium and connected to a chart recorder (Astro-Med, W Warwick, R.I.). To measure MAP, we inserted a polyethylene catheter into the right femoral artery, while to measure pulmonary vascular pressures, we inserted a Swanz-Ganz catheter (Edwards Lifesciences, Irvine, Calif.) by percutaneous techniques through the right jugular vein. From the Swanz-Ganz catheter, we obtained measurements of pulmonary arterial pressure (Ppa), wedge pressure (Pwp), and right atrial pressure (Rap), as well as determinations of thermodilution cardiac output (CO).
# From the hemodynamic measurements, we calculated SV from CO/heart rates (HR), stroke work (SW) from [SV*(MAP−Pwp)], and systemic vascular resistance (SVR) from [(MAP-Rap)/CO)*80]. We also normalized measurements of SV, SW, and CO and organ oxygen delivery (DO2) to body weight. We calculated DO2 from CO×Hb×1.34 ml oxygen per gram of Hb, since Hb was 100% saturated at a PO2 of ˜400 mmHg. From the arterial catheter and distal port of the Swanz-Ganz catheter, we also took arterial and mixed venous blood samples, respectively, for analyses of PO2, PCO2, and pH.
# In addition, we placed another polyethylene catheter into the left jugular vein, also by percutaneous techniques, for infusion of the bacteria and intravenous fluids and for obtaining blood chemistry and hematological samples. Since the baseline Pwp found in this model usually averages≈8-10 mmHg, we infused normal saline solution as necessary to maintain Pwp relatively constant over the duration of this study. […] The Clinical Chemistry Laboratory at the Health Sciences Centre performed the clinical laboratory tests.
# We included 5 groups of animals in the initial phase of this study. These groups included a septic control group, a non-septic control group, a norepinephrine (NE) septic group, a gentisic acid sodium salt (GSS) septic group, and a GSS non-septic group. In each group, we made baseline measurements of hemodynamics and blood parameters after approximately 1 hr period of stability. In the septic groups, after initiation of the bacterial infusion, we repeated the measurements in the septic shock condition. […] In the septic control group, after the SS condition, we started an infusion of 5% dextrose in water (D5W) at approximately 40 ml/hr for the remainder of the study, since D5W was the diluent for both the NE and GSS treatments.
# In all groups, we then made posttreatment measurements at 3 hrs and 5 hrs after completion of the septic shock/sham-shock determinations.
# In this supplemental study, we examined the effect of gallic acid on hemodynamics and mitochondrial function in our Pseudomonas aeruginosa model in a manner identical to that described for GSS treatment.
# hepatic mitochondria = experiment: Oxygen consumption rates of hepatic mitochondria harvested after in vivo treatment (Seahorse XF24); set-up: species or system dog; settings: treated septic dogs; FCCP 4 uM
# Procedure: After completion of the in-vivo measurements, we administered sodium pentobarbital (110 mg/kg) to euthanize the animal. In a subset of animals of each group, we immediately harvested a piece of liver and isolated the mitochondria as described by Schnaitman and Greenawalt (23). Briefly, we minced the extracted liver in mitochondrial isolation buffer (MSHE) that includes 70 mM sucrose, 210 mM mannitol, 5 mM HEPES, 1 mM EGTA, and fatty acid free bovine serum albumin (BSA). We then disrupted the tissue using a drill-driven glass/Teflon dounce homogenizer. We centrifuged the homogenate three times, after which we re-suspended the final pellet in a minimal volume of MSHE+BSA and determined protein (mg/ml). We diluted the mitochondrial preparation in cold mitochondrial assay solution (MAS) that contained 70 mM sucrose, 220 mM mannitol, 10 mM KH2PO4, 5 mM MgCl2, 2 mM HEPES, 1 mM EGTA, and BSA for plating directly onto the custom Seahorse 24-well culture dish (˜20 ug mitochondrial protein/50 ul per well; see further below). After centrifugation of the plate and addition of appropriate substrates, we viewed the mitochondria under a microscope to ensure consistent adherence to the well. We then transferred the plate to the XF24 Analyzer for initiation of the protocol as described below (17).
# To examine mitochondrial function in this model, we used a novel new technology that is capable of measuring dynamic changes in mitochondrial function, not easily attainable by other technologies (17). The Seahorse® XF24 extracellular flux analyser (Seahorse Bioscience, MA, USA) refines the technology by which mitochondrial oxygen consumption can be measured. This technology uses a piston to reversibly enclose a small volume (7 ul) above the mitochondria that can monitor oxygen uptake in that volume for 2-5 min, then raises the piston, allowing the bulk incubation medium (˜1 ml) to re-equilibrate. The ability to make up to 4 additions during the experiment allows mitochondrial respiration to be measured under various metabolic conditions. This piece of equipment has never been used to measure mitochondrial function in SS.
# In this protocol, we sequentially measured mitochondrial function under various metabolic conditions (17). To obtain basal OCR, we first added a substrate to the preparation that contained pyruvate (10 mM) and malate (2 mM). We then added ADP (adenosine-diphosphate; 4 mM) that allows ATP synthase to function, producing an increase in OCR (coupled OCR) that is termed “state3ADP”. When the ATP/ADP ratio approaches equilibrium, pmf rises, after which proton reentry through the synthase stops and respiration slows. We terminated coupled respiration (i.e. state3ADP) by the addition of the ATP synthase inhibitor oligomycin (2.0 uM) in which we achieved “stateoligomycin” where ATP recycling cannot contribute and there is a stable decrease in OCR. We then added the protonophore, FCCP (4 uM; carbonyl cyanide p-trifluoromethoxy-phenylhydrazone). FCCP leads to uncoupled respiration in which we previously titrated the concentration of FCCP to yield a maximal effect. In mitochondria in which ATP synthase activity is a limiting factor, uncoupled respiration may be greater than coupled respiration. […] We finally added rotenone (R; 2 uM) and antimycin A (AA; 2 uM) which are inhibitors of the electron transport chain (ETC) complexes, I and III, respectively. When added to the mitochondrial preparation, these inhibitors produce a marked decline in mitochondrial respiration since the electron transport chain is inhibited.
# With each treatment group, we obtained measurements of basal OCR, coupled OCR (i.e. state3ADP), and maximal OCR. In addition, we calculated coupled and uncoupled respiratory control ratios from state3ADP/stateoligomycin and uncoupled respiration/state FCCP/stateoligomycin, respectively. […]
# [2] = system: mitochondrial complex IV (cytochrome c oxidase); experiment: Enzymatic activity of hepatic mitochondrial complex IV; type: biochemical, dog; settings: hepatic mitochondria of treated septic dogs; mean ± SD
# Excerpt: As part of our assessment of mitochondrial function, we also measured the enzymatic activity of hepatic mitochondrial complex IV based on the rationale of Levy et al (10), since these investigators considered that dysfunction of complex IV was the most important determinant of abnormal mitochondrial function in SS. We determined complex IV activity spectrophotometrically by a temperature-controlled Ultrospec™ 2100 ultraviolet-visible spectrophotometer (Biopharmacia Biotech, Uppsala, Sweden) (17). Complex IV activity was measured at 25° C. by monitoring the absorbance decrease of reduced cytochrome c at 550 nm.
# [3] = septic dogs, 3 hrs posttreatment
# [4] = septic dogs, 5 hrs posttreatment
# [5] = septic dogs, baseline (before bacteria/treatment)
# [6] = septic dogs, septic shock (before treatment)
compound,measurement,setting,value
"NC[C@H](O)c1ccc(O)c(O)c1 [NE, norepinephrine]",effect of treatment on troponin (index of myocardial injury),"[1]; dog, in vivo",increased in the NE septic group
same,effect of treatment on stroke work index,"[1]; septic dogs, 3 hr and 5 hr vs septic control group, did not reach statistical significance",an increase in stroke work index
same,effect of treatment on systemic vascular resistance (SVR),"[1]; septic dogs, 3 hrs and 5 hrs posttreatment vs septic shock condition",increased SVR back to the baseline value; also recorded: an increase in SVR
same,Arterial pH,[1]; [3],7.20 ± .04*^+$
same,LD (lactate dehydrogenase),[1]; [3],315 ± 113*^+$ IU
same,Oxygen delivery,[1]; [3],29 ± 8 mL/min/kg
same,Arterial pH,[1]; [4],7.16 ± 0.06*^+$
same,LD (lactate dehydrogenase),[1]; [4],409 ± 167*^+$^ IU
same,Oxygen delivery,[1]; [4],28 ± 10 mL/min/kg
same,Arterial pH,[1]; [5],7.38 ± .05
same,LD (lactate dehydrogenase),[1]; [5],43 ± 23 IU
same,Oxygen delivery,[1]; [5],20 ± 3 mL/min/kg
same,effect of treatment on mean arterial pressure (MAP),"[1]; septic dogs, infusion started at septic shock condition, 3 hr and 5 hr post treatment",increased MAP back to the baseline value; also recorded: return in MAP to baseline
same,effect of treatment on blood lactate concentration,"[1]; septic dogs, over the course of the study",serum lactate increased; also recorded: significantly increased
same,Arterial pH,[1]; [6],7.26 ± .04*^+$
same,LD (lactate dehydrogenase),[1]; [6],177 ± 97*^+ IU
same,Oxygen delivery,"[1]; septic dogs, septic shock condition (before treatment)",26 ± 11 mL/min/kg
same,effect of treatment on oxygen delivery (DO2),"[1]; septic dogs, vs septic control group and gentisic septic group",increase in DO2
same,maximal (uncoupled) respiration (OCR after FCCP) of hepatic mitochondria,hepatic mitochondria,restore the increase in OCR in response to FCCP
same,enzymatic activity of mitochondrial complex IV,[2],3.89±0.33 umol/min/mg protein

# Source: patent publication US9833425B2, “Gentisic acid is used to improve systemic hemodynamics, hepatic mitochondrial function and lactate acidemia in patients with septic shock” (priority 2015, dated 2017)
